In brackets after ≈: the same amount, converted by molar mass. Read-outs that look alike come from different tables or passages of the source. Marks after values point to notes of the source that are not given here.
Tests used:
[1] = tested on: NO production in LPS-stimulated RAW 264.7 murine macrophages; design: method as in Choi et al. [47]; details: isolated from Trachelospermum jasminoides, ref Choi et al. [47]; cited from earlier work
[2] = tested on: NO production in LPS-activated RAW 264.7 macrophages; assay: Inhibition of nitric oxide (NO) production in LPS-activated RAW 264.7 macrophages (Griess reagent); format: cell-based, mouse; details: for IC50: Mus musculus
Protocol: The mouse-derived macrophage cell line RAW 264.7, purchased from the American Type Culture Collection (ATCC TIB-71, Rockville, MD, USA), was cultured in DMEM medium supplemented with 10% FCS and 1% penicillin/streptomycin/fungizone (PSF) under conventional cell culture conditions at a temperature of 37°C and a carbon dioxide concentration of 5% in a controlled humid atmosphere. Routine maintenance in culture (passage) was performed following ATCC instructions.
The RAW 264.7 macrophage cells were introduced into 96 well microtiter plates at a density of 2 × 10^5 cells/mL. Subsequently, cells were subjected to activation through incubation in a medium consisting of 1 µg/mL LPS alone, acting as the control. Furthermore, lipopolysaccharide was combined with varying concentrations of samples dissolved in DMSO (concentration ranges were 200–1.56 µg/mL for extracts and fractions and 100–0.78 µM for compounds). […] The quantity of nitric oxide released from macrophages was assessed using Griess reagent as previously described. All experiments for the measurement of nitric oxide inhibition were conducted three times in triplicate.

15-LOX from G. max = biological target: T1, 15-LOX from G. max (Glycine max, UniProt P08170); assay: Soybean LOX inhibition assay (ferrous oxidation-xylenol orange); format: biochemical; details: linoleic acid 140 µM, pH 7.4, 25°C, mean ± SD
T1 sequence (P08170 1-839): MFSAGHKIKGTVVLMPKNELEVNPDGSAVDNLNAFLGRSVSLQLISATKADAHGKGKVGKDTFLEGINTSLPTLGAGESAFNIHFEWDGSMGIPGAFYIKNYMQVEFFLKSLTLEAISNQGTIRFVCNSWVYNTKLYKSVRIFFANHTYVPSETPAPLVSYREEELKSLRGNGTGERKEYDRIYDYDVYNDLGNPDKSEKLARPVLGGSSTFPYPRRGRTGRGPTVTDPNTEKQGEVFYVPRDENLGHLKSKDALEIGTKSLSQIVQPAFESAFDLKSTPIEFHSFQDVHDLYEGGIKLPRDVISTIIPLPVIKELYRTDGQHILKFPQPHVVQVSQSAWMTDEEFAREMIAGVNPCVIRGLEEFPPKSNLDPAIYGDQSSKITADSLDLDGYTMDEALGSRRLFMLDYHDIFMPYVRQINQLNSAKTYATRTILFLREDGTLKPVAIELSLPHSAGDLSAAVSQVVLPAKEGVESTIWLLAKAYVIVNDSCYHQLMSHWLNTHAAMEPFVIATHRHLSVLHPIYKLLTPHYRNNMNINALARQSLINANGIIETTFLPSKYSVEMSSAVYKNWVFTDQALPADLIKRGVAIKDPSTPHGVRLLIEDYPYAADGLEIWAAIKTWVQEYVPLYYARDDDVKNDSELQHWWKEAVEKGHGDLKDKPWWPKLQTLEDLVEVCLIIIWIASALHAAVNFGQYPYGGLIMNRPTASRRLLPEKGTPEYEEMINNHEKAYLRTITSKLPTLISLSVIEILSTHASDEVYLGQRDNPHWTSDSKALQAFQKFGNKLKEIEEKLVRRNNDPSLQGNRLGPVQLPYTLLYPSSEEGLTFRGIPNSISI
Protocol: The assay was conducted following a previously described methodology with minor adjustments. The assay is based on the measurement of the formation of the Fe3+/xylenol orange complex on a spectrophotometer at a wavelength of 560 nm. 15-LOX from G. max was incubated with samples or standard inhibitors at a temperature of 25°C for 5 min. The concentration ranges of the samples ranged from 200 to 1.56 µg/mL for extracts and fractions and from 100 to 0.78 µM for compounds. Subsequently, linoleic acid (at a final concentration of 140 µM) in Tris–HCl buffer (at a pH of 7.4 and a concentration of 50 mM), and the mixture was incubated at a temperature of 25°C for 20 min in the absence of light. The assay was concluded by adding 100 µL of FOX reagent, which consisted of sulfuric acid (at a concentration of 30 mM), xylenol orange (at a concentration of 100 µM), and iron (II) sulfate (at a concentration of 100 µM) in a methanol/water mixture (at a ratio of 9 : 1). For control, only the LOX solution and buffer were pipetted into the wells. The blanks (background) contained the LOX enzyme during incubation, but the substrate (linoleic acid) was added after the addition of the FOX reagent. […] The percentage inhibition was calculated using the following formula: % inhibition = ((Acontrol–Ablank)−(Asample−Ablank)/(Acontrol−Ablank)) ×100. Here, Acontrol represents the absorbance of the control well, Ablank represents the absorbance of the blank well, and Asample represents the absorbance of the sample well.

IL-2 = assay: Th1/Th2 cytokine measurement (cytometric bead array) in LPS-stimulated RAW 264.7 macrophages, IL-2; format: cell-based, mouse; details: 50 μM, 24 hr, LPS-induced RAW 264.7; reduced from 1.032 pg/mL
Protocol: (§1) RAW 264.7 cells were cultured at a concentration of 2 × 10^5 cells/mL in a 48-well microplate and allowed to adhere for 24 hr. Subsequently, they were subjected to lipopolysaccharide (LPS) treatment at a concentration of 0.1 µg/mL, along with psoralen at concentrations of 5, 20, and 50 µM. […] Following an incubation period of 24 hr, the supernatant was collected, and the levels of pro-inflammatory Th1 cytokines (IFN-γ, TNF-α, and IL-2), as well as anti-inflammatory Th2 cytokines (IL-4, IL-6, and IL-10) were quantified. The experimental protocol adhered to the manufacturer's guidelines and utilized the BD TM cytometric beads array human Th1/Th2 cytokine kit (BD-Biosciences). Data acquisition was performed using a BD LSR FortessaTM cell analyzer flow cytometer.

IFN-γ = assay: Th1/Th2 cytokine measurement (cytometric bead array) in LPS-stimulated RAW 264.7 macrophages, IFN-γ; format: cell-based, mouse; details: 50 μM, 24 hr, LPS-induced RAW 264.7; reduced from 1.12 pg/mL
Protocol: as §1

IL-10 = assay: Th1/Th2 cytokine measurement (cytometric bead array) in LPS-stimulated RAW 264.7 macrophages, IL-10; format: cell-based, mouse; details: 50 μM, 24 hr, LPS-induced RAW 264.7; increased from 0.857 pg/mL
Protocol: as §1

COX-1 = biological target: T2, COX-1 (Mus musculus, UniProt P22437); assay: Fluorometric COX activity assay in LPS-stimulated RAW 264.7 cells, COX-1; format: cell-based; details: LPS 0.1 µg/mL, 24 hr, untreated control 95.19 µU/mg
T2 construct: endogenous in cells; host or cells: RAW 264.7 macrophages, LPS-stimulated
T2 sequence (P22437 27-602): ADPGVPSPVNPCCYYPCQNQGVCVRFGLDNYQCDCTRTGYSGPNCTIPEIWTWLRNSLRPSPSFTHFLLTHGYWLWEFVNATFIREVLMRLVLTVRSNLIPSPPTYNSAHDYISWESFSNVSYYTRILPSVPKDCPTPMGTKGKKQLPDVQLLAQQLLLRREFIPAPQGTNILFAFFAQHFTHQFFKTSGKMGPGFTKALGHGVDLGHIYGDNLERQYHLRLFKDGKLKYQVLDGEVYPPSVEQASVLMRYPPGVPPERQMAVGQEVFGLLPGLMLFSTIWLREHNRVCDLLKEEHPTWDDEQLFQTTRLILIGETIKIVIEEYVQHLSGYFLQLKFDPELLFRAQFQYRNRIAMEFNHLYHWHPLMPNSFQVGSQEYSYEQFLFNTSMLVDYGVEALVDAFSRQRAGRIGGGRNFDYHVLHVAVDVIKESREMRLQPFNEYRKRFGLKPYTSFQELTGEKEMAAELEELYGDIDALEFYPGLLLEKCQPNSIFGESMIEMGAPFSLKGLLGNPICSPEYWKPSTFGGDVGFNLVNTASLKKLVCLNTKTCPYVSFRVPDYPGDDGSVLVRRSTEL
Protocol: (§2) Evaluation of COX-1 and COX-2 enzyme activity was performed using the fluorometric COX activity assay kit provided by Biovision. RAW 264.7 cells were cultured at a density of 2 × 10^5 cells/mL in a 48-well microplate and allowed to adhere for a period of 24 hr. Subsequently, cells were treated with LPS at a concentration of 0.1 µg/mL and psoralen at concentrations of 5, 20, and 50 µM. The cyclooxygenase enzyme activity assay was performed after a 24 hr incubation period. To initiate the assay, cells were removed using TNE buffer containing Tris (40 mM), NaCl (150 mM), and EDTA (1 mM), followed by a washing step using 1x PBS. Cells were then resuspended in 1 mL of 1x PBS, transferred to a 1.5 mL tube, and subjected to centrifugation at 500x g for 3 min. The resulting pellet was resuspended in 0.5 mL of lysis buffer containing a protease inhibitor cocktail, followed by vortexing and incubation at 4°C for 5 min. Subsequently, the cell lysate was centrifuged at 12,000 x g for 3 min, and the supernatant was collected for the COX activity assay. The fluorometric cyclooxygenase activity assay kit provided by Biovision was utilized according to the manufacturer's instructions to assess COX activity. This assay incorporates specific inhibitors for COX-1 and COX-2 enzymes, allowing differentiation of their respective activities and those of other peroxidases.

COX-2 = biological target: T3, COX-2 (Mus musculus, UniProt Q05769); assay: Fluorometric COX activity assay in LPS-stimulated RAW 264.7 cells, COX-2; format: cell-based; details: LPS 0.1 µg/mL, 24 hr, untreated control 113.81 µU/mg
T3 construct: the supernatant was collected for the COX activity assay; endogenous in cells; host or cells: RAW 264.7 macrophages, LPS-stimulated
T3 sequence (Q05769 18-604): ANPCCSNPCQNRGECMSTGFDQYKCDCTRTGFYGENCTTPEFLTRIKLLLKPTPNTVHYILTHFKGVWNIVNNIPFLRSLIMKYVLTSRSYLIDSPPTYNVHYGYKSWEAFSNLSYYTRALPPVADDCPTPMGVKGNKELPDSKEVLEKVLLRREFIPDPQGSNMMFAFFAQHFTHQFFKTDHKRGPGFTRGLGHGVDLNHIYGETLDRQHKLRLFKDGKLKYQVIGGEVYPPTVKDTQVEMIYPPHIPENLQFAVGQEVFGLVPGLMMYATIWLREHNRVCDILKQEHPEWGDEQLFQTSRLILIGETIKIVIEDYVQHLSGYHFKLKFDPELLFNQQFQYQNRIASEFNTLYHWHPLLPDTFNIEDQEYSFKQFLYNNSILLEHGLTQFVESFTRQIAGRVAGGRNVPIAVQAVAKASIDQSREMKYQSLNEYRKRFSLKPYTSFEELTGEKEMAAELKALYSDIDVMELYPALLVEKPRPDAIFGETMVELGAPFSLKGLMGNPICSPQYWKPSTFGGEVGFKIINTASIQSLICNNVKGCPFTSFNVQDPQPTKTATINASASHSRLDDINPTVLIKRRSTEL
Protocol: as §2

IL-6 = assay: Th1/Th2 cytokine measurement (cytometric bead array) in LPS-stimulated RAW 264.7 macrophages, IL-6; format: cell-based, mouse; details: 50 μM, 24 hr, LPS-induced RAW 264.7; increased from 156.96 pg/mL
Protocol: as §1

IL-4 = assay: Th1/Th2 cytokine measurement (cytometric bead array) in LPS-stimulated RAW 264.7 macrophages, IL-4; format: cell-based, mouse; details: 50 μM, 24 hr, LPS-induced RAW 264.7; increased from 0.81 pg/mL
Protocol: as §1

TNF-α = assay: Th1/Th2 cytokine measurement (cytometric bead array) in LPS-stimulated RAW 264.7 macrophages, TNF-α; format: cell-based, mouse; details: 50 μM, 24 hr, LPS-induced RAW 264.7; reduced from 4,418.86 pg/mL
Protocol: as §1

[3] = RAW264.7, LPS 1 µg/mL activated RAW 264.7 macrophage cells, mean ± SD, read-out: NO inhibition IC50

CC[C@H](CC[C@@H](C)[C@H]1CC[C@H]2[C@@H]3CC=C4C[C@@H](O[C@@H]5O[C@H](CO)[C@@H](O)[C@H](O)[C@H]5O)CC[C@]4(C)[C@H]3CC[C@]12C)C(C)C [(3), β-sitosterol glucoside]
Reduction of NO production [1]: 72.8%
IC50 [2, 3]: 26.1 ± 3.01 µg/mL (≈ 45.3 µM)
IC50 (15-LOX from G. max): 25.3 µM

O=c1ccc2cc3ccoc3cc2o1 [(1), psoralen]
IL-2 level (IL-2): 0.551 pg/mL
IFN-γ level (IFN-γ): 0.56 pg/mL
IL-10 level (IL-10): 1.122 pg/mL
IC50 [2, 3]: 1.19 ± 0.45 µg/mL (≈ 6.39 µM)
IC50 (15-LOX from G. max): 18.4 µM
COX-1 activity (COX-1; psoralen 5 μM): 44.35 µU/mg
COX-1 activity (COX-1; psoralen 20 μM): 31.25 µU/mg
COX-1 activity (COX-1; psoralen 50 μM): 22.73 µU/mg
COX-2 activity (COX-2; psoralen 5 μM): 88.33 µU/mg
COX-2 activity (COX-2; psoralen 20 μM): 58.1 µU/mg
COX-2 activity (COX-2; psoralen 50 μM): 43.84 µU/mg
IL-6 level (IL-6): 255.31 pg/mL
IL-4 level (IL-4): 2.22 pg/mL
TNF-α level (TNF-α): 1,032.66 pg/mL

octadecanyl-3[4-hydroxyphenyl]-prop-2-enoate [(2)]
NO inhibition IC50 ([2]; LPS 1 µg/mL activated RAW 264.7 macrophage cells, mean ± SD): 39.41 ± 2.29^g μg/mL
15-LOX inhibition IC50 (15-LOX from G. max): 35.57 ± 2.35^j μg/mL

COc1ccc2c(c1)c(CC(=O)O)c(C)n2C(=O)c1ccc(Cl)cc1 [Indomethacin, indomethacin, reference compound]
IC50 ([2]; RAW264.7, read-out: NO inhibition IC50): 3.79 ± 0.88 µg/mL (≈ 10.6 µM)

Source: article PMC11257762, “Psoralen Isolated from the Roots of Dorstenia psilurus Welw. Modulate Th1/Th2 Cytokines and Inflammatory Enzymes in LPS-Stimulated RAW 264.7 Macrophages” (Mediators of Inflammation, 2024)
